± gives the standard deviation of the averaged measurements.
System: HepaRG
Experiment: LDH release cytotoxicity, % of total lysis control; higher = more cytotoxic
Conditions: 48 h
How it was run: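 Single-lot HepaRG cells on collagen I-coated 96-well plates were exposed for 48 h in duplicate, in serum-free induction medium with 0.5% DMSO, to eight-point half-log series (test chemicals top 100 µM). Total lysis wells received 0.1% Triton X, and LDH leakage into 50 µL spent medium was read as resorufin fluorescence (CytoTox-ONE, Tecan Safire). Percent cytotoxicity was normalized to on-plate vehicle and total lysis controls and averaged over the duplicates.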

| SMILES | LDH release cytotoxicity (0.03162 µM) [%] | LDH release cytotoxicity (0.1 µM) [%] | LDH release cytotoxicity (0.3162278 µM) [%] | LDH release cytotoxicity (1 µM) [%] | LDH release cytotoxicity (3.16228 µM) [%] | LDH release cytotoxicity (10 µM) [%] | LDH release cytotoxicity (31.6228 µM) [%] | LDH release cytotoxicity (100 µM) [%] | LDH release cytotoxicity (0.031623 µM) [%] | LDH release cytotoxicity (0.316228 µM) [%] |
| --- | --- | --- | --- | --- | --- | --- | --- | --- | --- | --- |
| CCCCSP(=O)(SCCCC)SCCCC [Tribufos] | -1.39 ± 0.84 | -0.774 ± 0.82 | -1.31 ± 0.24 | -1.25 ± 0.2 | -0.815 ± 0.25 | -0.0795 ± 0.058 | -0.648 ± 0.29 | 0.564 ± 0.25 |  |  |
| ClC1=C(Cl)C2(Cl)C3C4C=CC(C4)C3C1(Cl)C2(Cl)Cl (centres undefined) [Aldrin] | -1.03 ± 0.13 | -1.22 ± 0.11 | -1.42 ± 0.63 | -2.25 ± 0.36 | -1.19 ± 0.49 | -0.76 ± 1.3 | -1.01 ± 0.71 | 3.93 ± 0.095 |  |  |
| CCC(C)N1C(=O)N=C(C)C(Br)C1=O (centres undefined) [Bromacil] |  | -3.85 ± 1.5 |  | -3.54 ± 0.72 | -3.65 ± 0.22 | -2.46 ± 0.054 | 0.888 ± 0.45 | 5.41 ± 1.2 | -0.635 ± 0.33 | -3.85 ± 0.21 |
| O=P(OC(CCl)CCl)(OC(CCl)CCl)OC(CCl)CCl [Tris(1,3-dichloro-2-propyl) phosphate] | 0.268 ± 1.8 | -1.46 ± 0.26 | -0.407 ± 0.3 | -1.12 ± 0.76 | -0.951 ± 0.83 | -0.799 ± 0.15 | 0.114 ± 0.25 | 9.87 ± 0.53 |  |  |
| c1ccc2[nH]c(-c3cscn3)nc2c1 [Thiabendazole] | -1.05 ± 0.62 | -0.974 ± 0.082 | -1.37 ± 0.03 | -1.6 ± 0.34 | -1.13 ± 0.68 | -0.856 ± 0.24 | 0.392 ± 0.63 | 5.7 ± 1.5 |  |  |
| COc1ccc(C=CS(=O)(=O)NC(=O)c2ccc(C)cc2Cl)cc1 | -1.21 ± 0.38 | -1.99 ± 0.4 | -1.66 ± 0.63 | -1.597 ± 0.014 | -1.41 ± 0.3 | -1.42 ± 0.38 | -0.383 ± 0.54 | 1.21 ± 0.62 |  |  |
| CCCCCCCCCCCCO [1-Dodecanol] |  | -0.16 ± 8 |  | -2.62 ± 3.8 | -2.27 ± 3.2 | -0.892 ± 4.2 | -1.67 ± 1 | -0.399 ± 1.2 | -3.98 ± 0.71 | -2.69 ± 2.2 |
| Cc1ccc2ncccc2c1 [6-Methylquinoline] | -1.09 ± 0.86 | -1.74 ± 0.29 | -0.691 ± 0.21 | -0.702 ± 0.45 | 1.12 ± 0.71 | 3.62 ± 0.63 | 6.32 ± 0.88 | 12.7 ± 2.4 |  |  |
| CCC(C)(CC)c1cc(NC(=O)c2c(OC)cccc2OC)on1 [Isoxaben] | -2.09 ± 1.5 | -2.04 ± 0.44 | -2.03 ± 0.16 | -2.59 ± 0.72 | -2.88 ± 0.57 | -1.64 ± 0.83 | -1.59 ± 0.14 | 11.4 ± 1.3 |  |  |
| COCCO [2-Methoxyethanol] | -2.71 ± 0.16 | -2.42 ± 0.11 | -1.84 ± 0.67 | -2.08 | -2.13 ± 0.46 | -1.562 ± 0.005 | 0.278 ± 0.11 | 2.52 ± 0.4 |  |  |
| CCCCN(CCCC)N=O [N-Nitrosodibutylamine] | -1.09 ± 0.045 | -1.36 ± 0.25 | -1.56 ± 0.69 | -2.27 ± 0.91 | -1.56 ± 0.58 | -1.2 ± 0.67 | -1.12 ± 0.17 | 0.0939 ± 0.25 |  |  |
| CCCCCCCCCc1ccc(O)cc1 [4-Nonylphenol] | -1.27 ± 0.19 | -0.659 ± 0.11 | -1.49 ± 0.82 | -1.65 ± 0.14 | -0.715 ± 0.039 | 0.445 ± 1.6 | -0.17 ± 0.57 | 1.51 ± 1.1 |  |  |
| CC(C)(c1cc(Br)c(O)c(Br)c1)c1cc(Br)c(O)c(Br)c1 [3,3',5,5'-Tetrabromobisphenol A] | -1.12 ± 0.1 | -1.08 ± 0.92 | -0.948 ± 1.4 | -1.1 ± 0.047 | -0.766 ± 0.24 | -0.155 ± 0.087 | 0.933 ± 0.068 | 3.36 ± 1.1 |  |  |
| CN=C1C=NN(c2cccc(C(F)(F)F)c2)C(=O)C1Cl (centres undefined) [Norflurazon] | -0.275 ± 1.1 | -1.08 ± 0.48 | -0.0751 ± 2 | 0.0859 ± 2.5 | -1.2 ± 0.27 | -0.411 ± 0.49 | 0.0481 ± 1.5 | 1.81 ± 1.8 |  |  |
| CCOP(=O)(SC(C)CC)N1CCSC1=O (centres undefined) [Fosthiazate] | -0.419 ± 0.44 | -0.335 ± 0.79 | -0.582 ± 0.46 | -0.0276 ± 1 | -0.262 ± 0.11 | -0.389 ± 0.35 | -0.432 ± 0.8 | 0.843 ± 0.36 |  |  |
| OCCC(F)(F)C(F)(F)C(F)(F)C(F)(F)C(F)(F)C(F)(F)F [6:2 Fluorotelomer alcohol] | -0.419 ± 0.26 | -1.392 ± 0.012 | -1.67 ± 0.41 | -2.28 ± 0.32 | -1.52 ± 0.59 | -1.12 ± 1.1 | -1.141 ± 0.005 | -0.148 ± 0.73 |  |  |
| CC(Cc1ccc(OCC(=O)O)cc1)NCC(O)c1csc(C(F)(F)F)n1 (centres undefined) | -1.76 ± 1.8 | -2.85 ± 0.47 | -1.56 ± 0.35 | -1.12 ± 0.24 | -1.22 ± 0.57 | -0.599 ± 0.77 | 0.839 ± 2.3 | 0.309 ± 0.77 |  |  |
| CC(Oc1cccc(Cl)c1)C(=O)O (centres undefined) [Cloprop] | -1.06 ± 1.4 | -0.561 ± 0.06 | -0.691 ± 0.98 | -0.434 ± 0.14 | -0.762 ± 0.08 | -0.167 ± 0.17 | -0.608 ± 0.19 | 0.547 ± 0.3 |  |  |
